# Laboratory results: US20150051203A1, “TRIAZOLE DERIVATIVES AS HSP90 INHIBITORS” (Synta Pharmaceuticals Corp., priority 2012, published 2015)
# Where two headings read alike, the source gives them in different places.
# Key:
# [1] = tested on: Her2; experiment: Degradation of Her2 in BT-474 cells (Western blot, Method 1); assay type: cell-based, Human; details: 0.5 μM, overnight
# Experimental: BT-474 cells are treated with 0.5 μM, 2 μM, or 5 μM of 17AAG (a positive control) or 0.5 μM, 2 μM, or 5 μM of a compound of the invention overnight in DMEM medium. After treatment, each cytoplasmic sample is prepared from 1×10^6 cells by incubation of cell lysis buffer (#9803, Cell Signaling Technology) on ice for 10 minutes. The resulting supernatant used as the cytosol fractions is dissolved with sample buffer for SDS-PAGE and run on a SDS-PAGE gel, blotted onto a nitrocellulose membrane by using semi-dry transfer. Non-specific binding to nitrocellulose is blocked with 5% skim milk in TBS with 0.5% Tween at room temperature for 1 hour, then probed with anti-Her2/ErB2 mAb (rabbit IgG, #2242, Cell Signaling) and anti-Tubulin (T9026, Sigma) as housekeeping control protein. HRP-conjugated goat anti-rabbit IgG (H+L) and HRP-conjugated horse anti-mouse IgG (H+L) are used as secondary Ab (#7074, #7076, Cell Signaling) and LumiGLO reagent, 20× Peroxide (#7003, Cell Signaling) is used for visualization.
# BT-474 cells were treated with 0.5 μM, 2 μM, or 5 μM of 17AAG (a positive control) or 0.5 μM, 2 μM, or 5 μM of a compound of the invention overnight in DMEM medium. After treatment, each cytoplasmic sample was prepared from 1×10^6 cells by incubation of cell lysis buffer (#9803, Cell Signaling Technology) on ice for 10 minutes. […]
# [2] = tested on: Her2; experiment: Fluorescent staining of Her2 on the surface of cells, FACS (BT474); assay type: cell-based, Human
# Experimental: (§1) After treatment with a compound of the invention, cells are washed twice with 1×PBS/1% FBS, and then stained with anti-Her2-FITC (#340553, BD) for 30 min at 4° C. Cells are then washed three times in FACS buffer before the fixation in 0.5 ml 1% paraformadehyde. Data is acquired on a FACSCalibur system. Isotype-matched controls are used to establish the non-specific staining of samples and to set the fluorescent markers. A total 10,000 events are recorded from each sample. Data are analyzed by using CellQuest software (BD Biosciences).
# as §1, with “paraformadehydrede.” for “paraformadehyde.”
# [3] = tested on: c-Kit; experiment: c-Kit degradation in HEL92.1.7 cells (FACS-based degradation assay); assay type: cell-based; details: treated about 18 h
# Experimental: Two leukemia cell lines, HEL92.1.7 and Kasumi-1, were used for testing c-Kit degradation induced by Hsp90 inhibitors of the invention. The cells (3×10^5 per well) were treated with 17AAG (0.5 μM), or a compound of the invention for about 18 h. The cells were collected and centrifuged (SORVALL RT 6000D) at 1200 rpm for 5 min. The supernatants were discarded, and the cells were washed one time with 1×PBS. After centrifugation the cells were stained with FITC conjugated c-Kit antibody (MBL International, Cat# K0105-4) in […] 1×PBS at 4° C. for 1 h. The samples were read and analyzed with FACSCalibur flow cytometer (Becton Dicknson).
# c-Kit, a tyrosine kinase receptor and one of the Hsp90 client proteins, was selected and used in a FACS-based degradation assay.
# [4] = tested on: Her2; experiment: Her2 degradation in BT-474 cells, ICW (LI-COR Odyssey imaging); assay type: cell-based, Human; details: BT474 cells, 24 hours
# Experimental: All experiments were performed on day 1 after cell passage.
# BT-474 cells were plated in the interior 60 wells of a 96 well black clear bottom plate (20,000 cells/well) in DMEM medium, with DMEM media in the surrounding 36 wells, and incubated at 37° C. with 5% CO2 overnight. On the second day, concentration response curve source plates were produced (10 point, 3-fold dilution of compounds in DMSO) followed by a 1:30 dilution in an intermediate dilution plate containing DMEM. Compound was transferred from the intermediate plate to the cell plate at a dilution of 1:10. The cells were incubated at 37° C. with 5% CO2 for 24 hours.
# Cells were fixed in 4% phosphate buffered paraformaldehyde for 30 minutes at room temperature and then permeabilized by washing five times with 0.1% Triton X-100 in PBS for 5 minutes at room temperature on a shaker. Cells were blocked with Odyssey Blocking Buffer (LI-COR, #927-40000) on a shaker at room temperature for 1.5 hours followed by incubation with Her2 antibody (CST, #2165) diluted 1:400 in blocking buffer overnight on a shaker at 4° C. Cells were washed five times with 0.1% Tween-20 in PBS for 5 minutes at room temperature on a shaker and incubated with fluorescently labeled secondary antibody (LI-COR, #926-32211) diluted 1:1000 in blocking buffer, and DRAQ5 nuclear stain (Biostatus Limited, #DRAQ5) diluted 1:10,000, at room temperature on a shaker for 1 hour. Cells were washed 5 times with 0.1% Tween-20 in PBS for 5 minutes at room temperature on a shaker and imaged on a LI-COR Odyssey imaging station. The raw data was normalized to DRAQ5 and the Her2 EC50 were calculated using XLfit.
# [5] = Caco-2 permeability assay; assay type: in vitro ADME; details: human
# Experimental: Caco-2 cells were cultured on 24-well plates at 0.8×10^5 cells/cm^2 for approximately 20 days until TEER values were above 300 Ωcm^2. Caco-2 monolayers were rinsed twice with transport buffer (HBSS supplemented with 10 mM HEPES and 25 mM glucose, pH 7.4) and then pre-incubated for 30 min. Test and control compound solutions were loaded into the donor (A) or acceptor (B) compartments of a 24-well plate and incubated at 37° C. with 5% CO2 and 65% humidity for 2 h. For A to B permeability, the donor wells contained test compound and corresponding acceptor wells contained transport buffer. For B to A permeability, the […]. Atenolol and propranolol were used as low and high permeability compound controls, respectively. Digoxin was used was a P-gp substrate control. Cell viability was tested with Lucifer yellow at the end of the study.
# Permeability was calculated as follows:
# [formula] PappA to B={0.0005376×([Drug] Acceptor/[Drug] Initial)}
# PappB to A={0.0001792×([Drug] Acceptor/[Drug] Initial)}
# Polarization Ratio=PappB to A/PappA to B
# Polarization ratio >2 considered as an efflux (P-gp) substrate.
# [6] = Exploratory small molecule PK study in rats; assay type: in vivo, male Sprague-Dawley rats; set-up: AUClast: unit not given here; details: rat; for half-life: male, Sprague-Dawley, plasma, read-out: T½ (converted)
# Experimental: PK studies were conducted in male Sprague-Dawley rats. One group was dosed by IV (n=2) and another group was dosed orally (n=3). Blood samples were collected in lithium heparin coated microfuge tubes at 5 (IV only), 15, 30 min, 1, 3, 4, 6, 8, 24 h post dose. Samples were then centrifuged under refrigerated conditions and plasma was collected for analysis.
# A solvent-based protein precipitation procedure was used to measure the concentration of each compound in plasma and/or whole blood. Samples were analyzed with an Agilent 1100 HPLC (Santa Clara, Calif.) interfaced to an API 4000 tandem mass spectrometer (Applied Biosystems, Foster City, Calif.) using a Synergy, Hydro-RP column (4 μm, 2×50 mm; Phenomenex, Torrance, Calif.) at a flow rate of 0.5 ml/min. Mobile phase consisted of 10 mM ammonium acetate in water (A) and 10 mM ammonium acetate in 95/5 (v/v) methanol/water (B). Total run time was 5 min with the gradient elution. […] All standard curves were fit to a quadratic equation with a weighing factor of 1/(concentration)^2 to calculate compound concentrations.
EC50 [2],IC50 [3],EC50 [4],SMILES,further results
–,–,–,"C=CCNC1=C2C[C@@H](C)C[C@H](OC)[C@H](O)[C@@H](C)/C=C(\C)[C@H](OC(N)=O)[C@@H](OC)/C=C\C=C(/C)C(=O)NC(=CC1=O)C2=O [Compound 17AAG, 17-allylamino-17-demethoxygeldanamycin]",degradation of Her2 [1]: partial degradation of Her2
18 nM,4 nM,20 nM,"CC(C)c1cc(-c2n[nH]c(=O)n2-c2ccc3c(ccn3C)c2)c(O)cc1O [ganetespib, reference compound]",–
–,–,–,"CC(C)c1n[nH]c2cc(O)c(-c3nnc(C(=O)NCC(F)(F)F)n3-c3ccc(N4CCOCC4)cc3)cc12 [Compound 38, 5-(6-hydroxy-3-isopropyl-1H-indazol-5-yl)-4-(4-morpholinophenyl)-N-(2,2,2-trifluoroethyl)-4H-1,2,4-triazole-3-carboxamide]","Papp A→B at 2 h ([5]; A to B, 2 h, 37° C., pH 7.4): 124 nm/s; efflux ratio at 2 h ([5]; pH 7.4, ratio >2 considered as an efflux (P-gp) substrate, read-out: Pol. Ratio B-A/A-B): 2; half-life ([6]; IV 5 mg/Kg, DPD): 2.3 h; half-life ([6]; PO 25 mg/Kg, D5W): 10.7 h; AUClast ([6]; IV 5 mg/Kg, DPD): 2.6; F ([6]; PO 25 mg/Kg D5W vs IV 5 mg/Kg DPD): 0.52%; AUClast ([6]; PO 25 mg/Kg, D5W): 0.07"
–,7 nM,–,"CC(C)c1n[nH]c2cc(O)c(-c3nnc(C(=O)NC4CC4)n3-c3ccc(N4CCOCC4)cc3)cc12 [Compound 10, N-cyclopropyl-5-(6-hydroxy-3-isopropyl-1H-indazol-5-yl)-4-(4-morpholinophenyl)-4H-1,2,4-triazole-3-carboxamide]",–
–,> 20000 nM,–,"CCc1n[nH]c2cc(O)c(-c3nnc(O)n3-c3ccc4c(c3)CC(N3CCOCC3)C4)cc12 (centres unmarked) [Compound 35, 3-ethyl-5-(5-hydroxy-4-(2-morpholino-2,3-dihydro-1H-inden-5-yl)-4H-1,2,4-triazol-3-yl)-1H-indazol-6-ol]",–
> 1000 nM,> 1000 nM,300 nM,"CN1CCN(c2ccc(-n3c(O)nnc3-c3cc4c(C5CCC5)n[nH]c4cc3O)cc2)CC1 [Compound 70, 3-cyclobutyl-5-(5-hydroxy-4-(4-(4-methylpiperazin-1-yl)phenyl)-4H-1,2,4-triazol-3-yl)-1H-indazol-6-ol]",–
119 nM,106 nM,30 nM,"Oc1cc2[nH]nc(C3CCCC3)c2cc1-c1nnc(O)n1-c1ccc(N2CCOCC2)cc1 [Compound 71, 3-cyclopentyl-5-(5-hydroxy-4-(4-morpholinophenyl)-4H-1,2,4-triazol-3-yl)-1H-indazol-6-ol]",–
–,300 nM,–,"CCc1n[nH]c2cc(O)c(-c3nnc(SCc4cccnc4)n3-c3ccc(N4CCOCC4)cc3)cc12 [Compound 30, 3-ethyl-5-(4-(4-morpholinophenyl)-5-(pyridin-3-ylmethylthio)-4H-1,2,4-triazol-3-yl)-1H-indazol-6-ol]",–
